For 38 compounds, IC50 results are on record in US20230047816A1 (priority 2018, published 2023).

What is called IC50 is the concentration needed to halve the response being measured.

Where only a bound is given, the exact number is not on record here.

Recombinant full length human PFKFB3, sequence (Q16875 whole entry): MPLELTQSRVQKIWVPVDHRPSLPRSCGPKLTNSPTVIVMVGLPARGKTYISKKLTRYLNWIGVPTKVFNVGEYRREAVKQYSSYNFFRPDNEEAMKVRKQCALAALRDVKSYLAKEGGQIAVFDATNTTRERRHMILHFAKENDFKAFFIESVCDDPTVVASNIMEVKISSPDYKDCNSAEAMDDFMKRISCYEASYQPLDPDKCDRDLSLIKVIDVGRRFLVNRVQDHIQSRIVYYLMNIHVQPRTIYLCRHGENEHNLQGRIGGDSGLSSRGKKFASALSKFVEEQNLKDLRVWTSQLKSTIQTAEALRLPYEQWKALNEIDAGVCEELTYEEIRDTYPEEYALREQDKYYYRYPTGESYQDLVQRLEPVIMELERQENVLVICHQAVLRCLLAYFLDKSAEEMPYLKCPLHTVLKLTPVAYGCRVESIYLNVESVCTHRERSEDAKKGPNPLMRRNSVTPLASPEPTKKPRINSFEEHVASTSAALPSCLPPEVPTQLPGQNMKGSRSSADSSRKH

This experiment addresses Recombinant full length human PFKFB3 (Homo sapiens, UniProt Q16875). Nature of the experiment: PFKFB3 kinase activity assay (ADP production, ADP-Glo). (In general: ADP-Glo turns the ADP formed in a reaction into a luminescent signal.)
Regarding `O=C(O)c1cc(C(=O)Nc2cc(-c3ccc(Cl)cc3Cl)ccc2C(=O)O)c(C(=O)O)cc1O` [Example 44, 2-({4-carboxy-2′,4′-dichloro-[1,1′-biphenyl]-3-yl}carbamoyl)-5-hydroxybenzene-1,4-dicarboxylic acid], the IC50 was below 0.5 µM.

On to `COC(=O)c1ccc(-c2ccc(F)c(F)c2)cc1N1Cc2ccc(CO)cc2C1=O` [compound 157, methyl 3′,4′-difluoro-3-(6-(hydroxymethyl)-1-oxoisoindolin-2-yl)biphenyl-4-carboxylate], for which the IC50 was below 20 µM.

As for `COCCOC(=O)c1ccc(-c2ccccc2)cc1N1C(=O)c2ccc(-c3c[nH]nn3)cc2C1=O` [Compound 69, 3-[1,3-Dioxo-5-(1H-[1,2,3]triazol-4-yl)-1,3-dihydroisoindol-2-yl]biphenyl-4-carboxylic acid 2-methoxy-ethyl ester], the IC50 was 2 to 5 µM.

Regarding `COc1cc2c(cc1C(=O)O)C(=O)N(c1cc(-c3ccc(F)c(F)c3)ccc1C(=O)O)C2=O` [compound 170, 2-(4-carboxy-3′,4′-difluoro[1,1′-biphenyl]-3-yl)-6-methoxy-1,3-dioxo-2,3-dihydro-1H-isoindole-5-carboxylic acid], the 50% inhibitory concentration (IC50) is below 0.5 µM.

Turning to `COc1ccc(-c2c(C)sc(N3C(=O)c4ccc(C(=O)NS(=O)(=O)c5ccccc5)cc4C3=O)c2C#N)cc1` [Example 13, N-{2-[3-Cyano-4-(4-methoxyphenyl)-5-methylthiophen-2-yl]-1,3-dioxo-2,3-dihydro-1H-isoindole-5-carbonyl}-benzenesulfonamide], the 50% inhibitory concentration (IC50) is 5 to 20 µM.

Consider `O=C(O)c1ccc2c(c1)C(=O)N(c1cc(-c3cccnc3)ccc1C(=O)O)C2=O` [Example 52], for which the IC50 was below 0.5 µM.

For `CC(=O)Nc1ccc2c(c1)C(=O)N(c1cc(-c3ccc(F)c(F)c3)ccc1C(=O)O)C2` [Compound 130, 3-(6-Acetylamino-1-oxo-1,3-dihydroisoindol-2-yl)-3′,4′-difluoro-biphenyl-4-carboxylic Acid], the half-maximal inhibitory concentration (IC50) was below 20 µM.

On to `O=C(O)c1cc(C(=O)Nc2cc(-c3ccc(F)c(F)c3)ccc2O)c(C(=O)O)cc1O` [Example 37, 2-({3′,4′-difluoro-4-hydroxy-[1,1′-biphenyl]-3-yl}carbamoyl)-5-hydroxybenzene-1,4-dicarboxylic acid], for which the IC50 is below 0.5 µM.

For `CN(C)CCOC(=O)c1ccc2c(c1)C(=O)N(c1cc(-c3ccc(F)c(F)c3)ccc1C(=O)O)C2` [Compound 129, 2-(4-Carboxy-3′,4′-difluorobiphenyl-3-yl)-3-oxo-2,3-dihydro-1H-isoindole-5-carboxylic acid 2-dimethylamino-ethyl ester], the concentration for half-maximal inhibition (IC50) is below 20 µM.

As for `CC(C)OC(=O)c1ccc(-c2ccccc2)cc1N1C(=O)c2ccc(-c3nnn[nH]3)cc2C1=O` [Compound 96, 3-[1,3-Dioxo-5-(1H-tetrazol-5-yl)-1,3-dihydroisoindol-2-yl]biphenyl-4-carboxylic acid isopropyl ester], the half-inhibitory concentration (IC50) is 5 to 20 µM.

For the compound `O=C(O)c1cc(C(=O)O)c(C(=O)Nc2cc(-c3ccc(F)c(F)c3)ccc2O)cc1O` [Example 27, 4-((3′,4′-difluoro-4-hydroxy-[1,1′-biphenyl]-3-yl)carbamoyl)-6-hydroxyisophthalic acid], the IC50 was below 0.5 µM.

With `O=C(O)c1ccc(-c2cccnc2)cc1N1C(=O)c2ccc(-c3c[nH]nn3)cc2C1=O` [Example 49], the IC50 is 2 to 5 µM.

As to `O=C1c2ccc(-c3c[nH]nn3)cc2C(=O)N1c1cc(-c2ccccc2)cnc1O` [Compound 83, 2-(2-Hydroxy-5-phenylpyridin-3-yl)-5-(1H-[1,2,3]triazol-4-yl)-isoindole-1,3-dione], the half-maximal inhibitory concentration (IC50) lay in the range of 2 to 5 µM.

For `O=C1c2ccc(-c3c[nH]nn3)cc2C(=O)N1c1cc(-c2ccccc2)ccc1-c1nnn[nH]1` [Example 54], the concentration for half-maximal inhibition (IC50) is 2 to 5 µM.

Take `O=C(OCCN1CCOCC1)c1cc(-c2ccccc2)ccc1N1C(=O)c2ccc(-c3c[nH]nn3)cc2C1=O` [Compound 80, 4-[1,3-Dioxo-5-(1H-[1,2,3]triazol-4-yl)-1,3-dihydroisoindol-2-yl]biphenyl-3-carboxylic acid 2-morpholin-4-yl-ethyl ester]: the 50% inhibitory concentration (IC50) is below 20 µM.

As for `COC(=O)c1ccc(-c2ccccc2)cc1N1Cc2ccc(-c3c[nH]nn3)cc2C1=O` [Compound 91, 3-[1-Oxo-6-(1H-[1,2,3]triazol-4-yl)-1,3-dihydroisoindol-2-yl]biphenyl-4-carboxylic acid methyl ester], the 50% inhibitory concentration (IC50) is below 20 µM.

With `NC(=O)c1ccc(-c2ccc(F)c(F)c2)cc1N1Cc2ccc(-c3nnn[nH]3)cc2C1=O` [Compound 101, 3′,4′-Difluoro-3-[1-oxo-6-(1H-tetrazol-5-yl)-1,3-dihydroisoindol-2-yl]biphenyl-4-carboxylic acid amide], the concentration for half-maximal inhibition (IC50) lay in the range of 5 to 20 µM.

Consider `Cn1cncc1-c1ccc(N2C(=O)c3ccc(-c4c[nH]nn4)cc3C2=O)c(C(=O)O)c1` [Example 61], for which the IC50 was 5 to 20 µM.

Regarding `NC(=O)c1ccc2c(c1)C(=O)N(c1ccc(-c3ccccc3)cc1C(=O)O)C2=O` [Example 27], the IC50 is 2 to 5 µM.

Turning to `NC(=O)c1ccc(-c2ccccc2)cc1N1C(=O)c2ccc(-c3c[nH]nn3)cc2C1=O` [Compound 93, 3-[1,3-Dioxo-5-(1H-[1,2,3]triazol-4-yl)-1,3-dihydroisoindol-2-yl]biphenyl-4-carboxylic acid amide], the 50% inhibitory concentration (IC50) lay in the range of 5 to 20 µM.

Turning to `Cn1cncc1-c1ccc(N2C(=O)c3ccc(C(=O)O)cc3C2=O)c(C(=O)O)c1` [Compound 76, 2-[2-Carboxy-4-(3-methyl-3H-imidazol-4-yl)-phenyl]-1,3-dioxo-2,3-dihydro-1H-isoindole-5-carboxylic Acid], the 50% inhibitory concentration (IC50) is below 0.5 µM.

On to `O=C(O)c1cc(-c2ccccc2)ccc1N1C(=O)c2ccc(-c3nnn[nH]3)cc2C1=O` [Compound 94, 4-[1,3-Dioxo-5-(1H-tetrazol-5-yl)-1,3-dihydroisoindol-2-yl]biphenyl-3-carboxylic Acid], for which the IC50 was below 0.5 µM.

With `CS(C)(=O)=NC(=O)c1ccc(C(=O)O)c(C(=O)Nc2cc(-c3ccc(F)c(F)c3)ccc2C(=O)O)c1` [Example 36, 3-(2-carboxy-5-{[methyl(methylidene)oxo-λ^6-sulfanyl]carbamoyl}benzamido)-3′,4′-difluoro-[1,1′-biphenyl]-4-carboxylic acid], the IC50 fell in the range of 0.5 to 2 µM.

Take `CS(C)(=O)=NC(=O)c1ccc(C(=O)Nc2cc(-c3ccc(F)c(F)c3)ccc2C(=O)O)c(C(=O)O)c1` [Example 41, 3-(2-carboxy-4-{[methyl(methylidene)oxo-λ^6-sulfanyl]carbamoyl}benzamido)-3′,4′-difluoro-[1,1′-biphenyl]-4-carboxylic acid]: the IC50 is below 0.5 µM.

`O=C(O)c1ccc(-c2ccc(F)cc2F)cc1N1C(=O)c2ccc(-c3c[nH]nn3)cc2C1=O` [Example 51]: the IC50 is below 0.5 µM.

Consider `COC(=O)c1cc(-c2c[nH]nn2)ccc1C(=O)Nc1sc(C)c(-c2ccc(OC)cc2)c1C#N` [Example 9, methyl 2-{[3-cyano-4-(4-methoxyphenyl)-5-methylthiophen-2-yl]carbamoyl}-5-(2H-1,2,3-triazol-4-yl)benzoate], for which the half-maximal inhibitory concentration (IC50) was in the range of 5 to 20 µM.

As for `O=C(NS(=O)(=O)c1ccccc1)c1ccc2c(c1)C(=O)N(c1ccc(-c3ccccc3)cc1C(=O)O)C2=O` [Example 22], the IC50 lay within 2 to 5 µM.

For `O=C(O)c1ccc(C(=O)O)c(C(=O)Nc2nc(-c3ccccc3)cs2)c1` [Example 40, 2-[(4-phenyl-1,3-thiazol-2-yl)carbamoyl]benzene-1,4-dicarboxylic acid], the concentration for half-maximal inhibition (IC50) was below 20 µM.

With `COc1ccc(-c2c(C)sc(N3C(=O)c4ccc(C(=O)N[C@@H](Cc5ccc(O)cc5)C(=O)O)cc4C3=O)c2C#N)cc1` [Compound 136, (2S)-2-({2-[3-Cyano-4-(4-methoxyphenyl)-5-methyl-thiophen-2-yl]-1,3-dioxo-2,3-dihydro-1H-isoindole-5-carbonyl}-amino)-3-(4-hydroxyphenyl)propanoic acid], the IC50 was in the range of 2 to 5 µM.

As to `Nc1ccc(-c2ccc(N3C(=O)c4ccc(-c5c[nH]nn5)cc4C3=O)c(C(=O)O)c2)cn1` [Example 65], the IC50 was 2 to 5 µM.

Consider `O=C(O)c1ccc2c(c1)C(=O)N(c1cc(-c3ccccc3)ccc1-c1nnn[nH]1)C2=O` [Example 43], for which the half-maximal inhibitory concentration (IC50) lay in the range of 0.5 to 2 µM.

In the case of `NC(COC(=O)c1ccc(-c2ccccc2)cc1N1C(=O)c2ccc(-c3c[nH]nn3)cc2C1=O)C(=O)O` (stereo in doubt) [Compound 73, 3-[1,3-Dioxo-5-(1H-[1,2,3]triazol-4-yl)-1,3-dihydroisoindol-2-yl]biphenyl-4-carboxylic acid (2S)-2-amino-2-carboxy-ethyl ester], the concentration for half-maximal inhibition (IC50) was 2 to 5 µM.

As to `COc1ccc(-c2c(C)sc(NC(=O)c3cc(C(=O)O)ccc3C(=O)O)c2C#N)cc1` [Example 29, 2-{[3-cyano-4-(4-methoxyphenyl)-5-methylthiophen-2-yl]carbamoyl}benzene-1,4-dicarboxylic acid], the half-maximal inhibitory concentration (IC50) fell in the range of 5 to 20 µM.

As to `NC(=O)c1ccc2c(c1)C(=O)N(c1cc(-c3ccccc3)ccc1C(=O)O)C2=O` [Example 28], the 50% inhibitory concentration (IC50) lay in the range of 0.5 to 2 µM.

With `O=C1c2ccc(-c3c[nH]nn3)cc2C(=O)N1c1cc(-c2ccccc2)cc[n+]1[O-]` [Compound 85, 2-{1,3-Dioxo-5-(1H-[1,2,3]triazol-4-yl)-2,3-dihydro-1H-isoindol-2-yl}-4-phenylpyridine N-oxide], the concentration for half-maximal inhibition (IC50) was in the range of 5 to 20 µM.

Consider `NC(=O)c1ccc(-c2ccc(F)c(F)c2)cc1N1Cc2ccc(-c3c[nH]nn3)cc2C1=O` [Compound 113, 3′,4′-Difluoro-3-[1-oxo-6-(1H-[1,2,3]triazol-4-yl)-1,3-dihydroisoindol-2-yl]biphenyl-4-carboxylic acid amide], for which the IC50 is below 20 µM.

Regarding `COc1ccc(-c2c(C)sc(N3C(=O)c4ccc(C(=O)O)cc4C3=O)c2C#N)cc1` [Example 6], the IC50 is below 0.5 µM.

As for `COc1ccc(-c2c(C)sc(NC(=O)c3cc(O)c(C(=O)O)cc3C(=O)O)c2C#N)cc1` [Example 33, 4-((3-cyano-4-(4-methoxyphenyl)-5-methylthiophen-2-yl)carbamoyl)-6-hydroxyisophthalic acid], the IC50 is below 0.5 µM.
